The source of these data is patent US20250115665A1, “BISPECIFIC ANTIBODY AGAINST CD3 AND CD20 IN COMBINATION THERAPY FOR TREATING DIFFUSE LARGE B-CELL LYMPHOMA” (GENMAB A/S, priority 2022, published 2025).

The test system of one series is T cells. The series can be described thus: T-cell activation with immobilized anti-CD3 in the presence or absence of lenalidomide. It is filed as cell-based. To be noted: lenalidomide 5 or 50 μM, CD3 crosslinking by immobilized anti-CD3, 3 days; compared to no lenalidomide. The method, then: T cells were pre-incubated with assay medium or lenalidomide in the absence or presence of CD3 crosslinking by immobilized anti-CD3 for 3 days (as indicated on the x-axes), after which upregulation of CD69, CD25, PD-1 and LAMP-1 on CD4+ and CD8+ T cells was determined by flow cytometry. Data shown are geomean fluorescence intensities (FI) for four donors (each circle represents one condition for one donor). Pre-incubation conditions are shown on the x-axis.
(§1) Briefly, T cells were activated with immobilized anti-CD3 in the presence (5 or 50 μM) or absence of lenalidomide for 3 days. […] T cells that were activated in the presence or absence of lenalidomide were subsequently tested for their cytotoxic capacity in response to epcoritamab.

Series [1] relates to CD20-expressing Daudi cells. Kind of series: DuoBody-CD3xCD20-induced T-cell-mediated cytotoxicity assay with lenalidomide pre-treated T cells. It is filed as cell-based. To be noted: T cells pre-treated with lenalidomide and anti-CD3; Daudi target cells, E:T ratio 2:1. The method, then: T cells were incubated with (5 or 50 μM) or without lenalidomide in the absence or presence of immobilized anti-CD3 for 3 days. […] Data shown are average percentages cytotoxicity±SD of duplicates, normalized to medium control (no antibody, no lenalidomide).
as §1

In series [2] the test system is highly refractory large B-cell lymphoma. The settings on record: monotherapy, n=157; cited from earlier work.

`Nc1cccc2c1CN(C1CCC(=O)NC1=O)C2=O` (stereo not shown) [lenalidomide, 3-(4-Amino-1-oxo-1,3-dihydro-2H-isoindol-2-yl) piperidine-2,6-dione]: the “T-cell activation (upregulation of CD69, CD25 on the T cell surface, release of granzyme B and IFNγ)” value in the series with T cells is given as “increased T-cell activation”.

On to “epcoritamab: IgG1 bispecific CD3×CD20 antibody, heavy/light chains SEQ ID NOs: 24, 25 and 26, 27; CAS 2134641-34-0”, for which, in series [1], the “cytotoxic activity at lower antibody concentrations” value is “higher activity at lower epcoritamab concentrations” and the maximum percent cytotoxicity result is listed as “Higher maximum percent cytotoxicity”. In series [2], the “complete response (CR) rate” value is recorded as 39%, the “median duration of response (DOR)” value was 12 months, the “overall response rate (ORR)” value is given as 63% and the safety profile result is reported as “manageable safety profile”.
